According to patent publication US20100099793A1, “Gluing and Sealing Compounds Having Antimicrobial Properties” (Thor GmbH, priority 2006, published 2010):

Experiments:
[1] = tested on: mixture of fungal spores (Aspergillus niger, Alternaria alternata, Penicillium funiculosum, Paecilomyces variotii, Gliocladium virens, Chaetomium globosum); assay: Microbiological test along the lines of EN ISO 846 part B: fungal growth on sealant test specimens on complete agar; assay type: cell-based; set-up: key to Fungal growth after 28 d Method B Complete agar a / Fungal growth after 28 d Method B Complete agar b: 0: No growth evident when viewed with a microscope.; 1: Slight growth, no growth evident to the naked eye, readily apparent microscopically.; Slight growth, readily apparent macroscopically, growth over not more than 25% of the sample surface.; 3: Moderate growth, growth over up to 50% of the sample surface.; 4: Severe growth, growth over more than 50% of the sample surface, but not over the entire area.; 5: Severe growth over the entire sample surface; conditions: silicone; for Fungal growth after 28 d Method B Complete agar a: duplicate a; for Fungal growth after 28 d Method B Complete agar b: duplicate b
Protocol: The microbiological tests were carried out each in duplicate determinations along the lines of the standard EN ISO 846 B. For this purpose the sealants themselves were applied to inert support material (e.g., glass plates) approximately 2 mm thick, and, after curing, were cut into sections measuring 3×3 cm.
[…] In this test, the test specimens were placed on carbon-containing nutrient media (complete agar) for monitoring of the fungicidal action, and were then sprayed with a mixture of fungal spores; 0.1 ml of suspension per test specimen.
The spore suspension contained 10^6 CFU/ml and comprised the following fungi:
The samples thus inoculated were incubated at 25° C. for 28 days. This was followed by a visual evaluation of the sample surface. Where no growth was evident with the naked eye, the test took place with the assistance of a microscope. The ISO 846 tests were evaluated using the following scheme: • 0 No growth evident when viewed with a microscope. • 1 Slight growth, no growth evident to the naked eye, readily apparent microscopically. • 2 Slight growth, readily apparent macroscopically, growth over not more than 25% of the sample surface. • 3 Moderate growth, growth over up to 50% of the sample surface. • 4 Severe growth, growth over more than 50% of the sample surface, but not over the entire area. • 5 Severe growth over the entire sample surface.

[2] = Analysis for active in the sealant without and after water storage (retention / leaching); assay type: physicochemical; conditions: silicone; for Active [ppm] Oit: oxime basis, 1000 ppm added
Protocol: These sections, described below as test specimens, were subjected, both without water storage and after 2 days of water storage in fully demineralized water, with a change of water at 24 hours, to the ISO 846 test, part B. In this test, the test specimens were placed on carbon-containing nutrient media (complete agar) for monitoring of the fungicidal action, and were then sprayed with a mixture of fungal spores; 0.1 ml of suspension per test specimen.
These sealants were analyzed for the amounts of OIT present, both without water storage and after 2 days of water storage, and the leaching (%) was calculated.

[3] = acetoxy basis, 500 ppm, water storage 0 d
[4] = acetoxy basis, 500 ppm, water storage 3 months (once a week 24 hour storage in fully demineralized water)
[5] = acetoxy basis, 1000 ppm, water storage 0 d
[6] = acetoxy basis, 1000 ppm, water storage 3 months (once a week 24 hour storage in fully demineralized water)
[7] = oxime basis, 500 ppm, water storage 0 d
[8] = oxime basis, 500 ppm, water storage 2 d
[9] = oxime basis, 1000 ppm, water storage 0 d
[10] = oxime basis, 1000 ppm, water storage 2 d

## CCCCCCCCn1sccc1=O [OIT, 2-n-octyl-4-isothiazolin-3-one]
[1]; [3]
  Fungal growth after 28 d Method B Complete agar a: 1
  Fungal growth after 28 d Method B Complete agar b: 2 (Slight growth, readily apparent macroscopically, growth over not more than 25% of the sample surface.)
[1]; [4]
  Fungal growth after 28 d Method B Complete agar a: 5
  Fungal growth after 28 d Method B Complete agar b: 5
[1]; [5]
  Fungal growth after 28 d Method B Complete agar a: 0
  Fungal growth after 28 d Method B Complete agar b: 0
[1]; [6]
  Fungal growth after 28 d Method B Complete agar a: 4 (Severe growth, growth over more than 50% of the sample surface, but not over the entire area.)
  Fungal growth after 28 d Method B Complete agar b: 5
[1]; acetoxy basis, after the 3-month water storage cycles
  fungal growth (in words): heavily overgrown
[1]; acetoxy basis, without water storage (0d)
  fungal growth / action (in words): good action
[1]; [7]
  Fungal growth after 28 d Method B Complete agar a: 0
  Fungal growth after 28 d Method B Complete agar b: 1
[1]; [8]
  Fungal growth after 28 d Method B Complete agar a: 3 (Moderate growth, growth over up to 50% of the sample surface.)
  Fungal growth after 28 d Method B Complete agar b: 3 (Moderate growth, growth over up to 50% of the sample surface.)
[1]; [9]
  Fungal growth after 28 d Method B Complete agar a: 0
  Fungal growth after 28 d Method B Complete agar b: 0
[1]; [10]
  Fungal growth after 28 d Method B Complete agar a: 3 (Moderate growth, growth over up to 50% of the sample surface.)
  Fungal growth after 28 d Method B Complete agar b: 2 (Slight growth, readily apparent macroscopically, growth over not more than 25% of the sample surface.)
[1]; oxime basis, after water storage (2d)
  fungal growth (in words): moderately severe growth
[2]; acetoxy system, 400 ppm of OIT introduced, after 2 days of water storage
  Amount of active (ppm) With water storage: 265 ppm
[2]; acetoxy system, 400 ppm of OIT introduced, calculated from amounts without and after 2 days of water storage
  % leaching: 37%
[2]; acetoxy system, 400 ppm of OIT introduced, without water storage
  Amount of active (ppm) Without water storage: 420 ppm
[2]; 0 d (before water storage)
  Active [ppm] Oit: 740 ppm
[2]; 2 d (after water storage)
  Active [ppm] Oit: 230 ppm

## COC(=O)Nc1nc2ccccc2[nH]1 [carbendazim]
[1]; [3]
  Fungal growth after 28 d Method B Complete agar a: 3 (Moderate growth, growth over up to 50% of the sample surface.)
  Fungal growth after 28 d Method B Complete agar b: 4 (Severe growth, growth over more than 50% of the sample surface, but not over the entire area.)
[1]; [4]
  Fungal growth after 28 d Method B Complete agar a: 5
  Fungal growth after 28 d Method B Complete agar b: 5
[1]; acetoxy basis, 1000 ppm of active, without water storage (0d)
  fungal colonization (in words): slight colonization
[1]; [5]
  Fungal growth after 28 d Method B Complete agar a: 2 (Slight growth, readily apparent macroscopically, growth over not more than 25% of the sample surface.)
  Fungal growth after 28 d Method B Complete agar b: 2 (Slight growth, readily apparent macroscopically, growth over not more than 25% of the sample surface.)
[1]; [6]
  Fungal growth after 28 d Method B Complete agar a: 4 (Severe growth, growth over more than 50% of the sample surface, but not over the entire area.)
  Fungal growth after 28 d Method B Complete agar b: 5
[1]; acetoxy basis, both 500 and 1000 ppm, after the 3-month water storage cycle
  fungal growth (in words): severe fungal growth
